The results in this text go back to patent US12622956B2, “Methods and vaccines for inducing immune responses to multiple different MHC molecules” (Mayo Foundation for Medical Education and Research, priority 2015, dated 2026).

What all share (format): cell-based, human
One assay concerns T-cells. Nature of the assay: PBMC culture pulsed with long polypeptide, restimulation, intracellular cytokine (IFNγ) assay, healthy donors. Set-up: key to Testing (confirmed immunogenicity in healthy donors): *: Represents polypeptides confirmed to be immunogenic in 4/4 healthy donors.; ¶: Represents polypeptides confirmed to be immunogenic in one healthy donor. The settings on record: for immunogenicity (frequency of antigen-specific T-cells): FIGS. 4C and 4D, unvaccinated HLA-A2.1+ healthy volunteers; for immune response by antigen specific IFNγ production: FIGS. 4C and D, CD4+ and CD8+ T cells, four healthy donors, background subtracted. Here is the method: The SEA polypeptides, CMV long polypeptide, and VNTR polypeptide were tested in a culture system. Briefly, bulk peripheral blood mononuclear cells (PBMC) were thawed and exposed to GM-CSF on day 0 in culture. […] On day 2, media was washed out, and the cells were split 1:6 in fresh media containing IL-7 for T-cell expansion. Further splits occurred with simple addition of more media containing IL-7 depending upon acidity of the media between days 7-15. On day 16, an antigen specific restimulation of T-cell cultures was performed utilizing fresh PBMC as the antigen presenting cells. These fresh PBMC were thawed on day 14 and treated the same way as the initial culture on days 0-1, before being used on day 16. At the time of restimulation, an intracellular cytokine assay was performed. The T-cell cultures also were allowed to proliferate for an additional […] in media containing IL-7. At the end of culture, day 28, T-cells were further tested with a new intracellular cytokine assay utilizing fresh PBMC, prepared the same way as the PBMC used on day 16 for the first intracellular cytokine assay. Representative dot-plots for IFNγ levels are shown for the CMV pp65 polypeptide and the SEA2 polypeptide, with levels being much lower when T-cells were not restimulated with the same polypeptide they saw at the initiation of culture. […] Each data point represents the level of IFNγ after subtracting the levels of IFNγ from restimulation with irrelevant polypeptides or no polypeptide from levels when T-cells were restimulated with the original polypeptide.
The synthesized long peptides were individually pulsed onto GM+R848+LPS conditioned PBMC cultures established from unvaccinated HLA-A2.1+ healthy volunteers, then expanded in rhIL-7 or rhIL-7+rhIL-2. […] Proliferation of CD4+ and CD8^+ T-cells was indistinguishable, with both subsets retaining their initial proportionality during expansion.

Another assay relates to MDA-MB-231.MUC1. Nature of the assay: Cr51 release lysis by peptide-driven T-cells. The settings on record: T-cells from 3 donors; FIG. 6. An excerpt:
T-cells from GM+R848+LPS conditioned PBMC driven by either SEA2 or SEA1 long peptides not only specifically recognized one or both of these sensitizing peptides at restimulation, but also preferentially lysed the HLA-A2.1+ human breast cancer line MDA-MB-231 transduced to express MUC1 (MDA-MB-231.MUC1) compared to MDA-MB-231.Neo control targets. […] Polyclonally driven T-cells from all 3 donors lysed MDA-MB-231.MUC1 indistinguishably from MDA-MB-231.Neo.

For a further assay, the system named is SEA1-specific T-cells. Nature of the assay: Effect of C-terminal amidation on sensitizing Ag-specific IFNγ T cells. To be noted: FIG. 9; one healthy donor; versus SEA1 without C-terminal amidation. From the text:
Amidated polypeptides were amidated at the C-terminus as described elsewhere (see, e.g., Brinckerhoff et al., Int. J. Cancer 83 (3): 326-34 (1999)).
A cocktail of peptides such as SEA1, SEA1-amide, acetyl-SEA1 and acetyl-SEA1-amide can be used to capture a broadened SEA1 response (or similarly for any other peptide).

Ends that are not written are not given here.

Take “3 (NRPALGSTAPPVHNVTSASGSASGSASTLV; immunogenic polypeptide) [compound 3]”: the “Testing (confirmed immunogenicity in healthy donors)” value (from here on “Testing”) in the assay on T-cells is “*/MUC1”.

As for “SQEPMSIYVYALPLKMLNIPSINVHHYP [SEQ ID NO: 1]”, in the assay on T-cells, the “immunogenicity (frequency of antigen-specific T-cells)” value was “highly immunogenic” and the “immune response by antigen specific IFNγ production” value (“immune response” below) is reported as “consistently exhibited an immune response”.

In the case of “12 (AHNQVRQVPLQRLRIVRGTQLFEDNYALA; immunogenic polypeptide) [compound 12]”, the “Testing” value in the assay with T-cells is recorded as “¶/HER2”.

As to “5 (STSPQLSTGVSFFFLSFHISNLQFNSSLEDPSTD; immunogenic polypeptide) [compound 5]”, in the assay on T-cells, the “Testing” value was “*/MUC1”.

As to “STDYYQELQRDISEMFLQIYKQGGFLGLSNIKFRPGSVV [SEA2]”, in the assay with T-cells, the “immunogenicity (frequency of antigen-specific T-cells)” value is reported as “highly immunogenic” and the “immune response” value is “consistently exhibited an immune response”. Also, the “lysis of MDA-MB-231.MUC1 compared to MDA-MB-231.Neo control targets” value in the assay on MDA-MB-231.MUC1 was “significantly more”.

Turning to “6 (STDYYQELQRDISEMFLQIYKQGGFLGLSNIKFRPGSVV; immunogenic polypeptide) [compound 6]”, the “Testing” value in the assay on T-cells is reported as “*/MUC1”.

Take “26 (GVGSPYVSRLLGICLTSTVQLVTQLM; immunogenic polypeptide) [compound 26]”: the “Testing” value with T-cells is recorded as “¶/HER2”.

On to “29 (DLAARNVLVKSPNHVKITDFG; immunogenic polypeptide) [compound 29]”, for which the “Testing” value with T-cells is reported as “¶/HER2”.

On to “20 (ELGSGLALIHHNTHLCFVHTVPW; immunogenic polypeptide) [compound 20]”, for which the “Testing” value in the assay on T-cells is reported as “¶/HER2”.

“16 (NIQEFAGCKKIFGSLAFLPESFDGDP; immunogenic polypeptide) [compound 16]”: the “Testing” value with T-cells is on record as “¶/HER2”.

On to “57 (GVGSPYVSRLLGICLTSTVQLV; immunogenic polypeptide) [compound 57]”, for which, in the assay with T-cells, the “Testing” value is given as “¶/HER2”.

As for “30 (DGGKVPIKWMALESILRRRFTHQS; immunogenic polypeptide) [compound 30]”, the “Testing” value with T-cells is “¶/HER2”.

Take SPQLSTGVSFFFLSFHISNLQFNSSLEDPSTD [SEA1]: in the assay on T-cells, the “immunogenicity (frequency of antigen-specific T-cells)” value is listed as “highly immunogenic” and the “immune response” value is recorded as “consistently exhibited an immune response”. The “lysis of MDA-MB-231.MUC1 compared to MDA-MB-231.Neo control targets” value in the assay on MDA-MB-231.MUC1 was “significantly more”.

Turning to “7 (VHDVETQFNQYKTEAASRYNLTISDVSVSDVPFP; immunogenic polypeptide) [compound 7]”, the “Testing” value with T-cells is reported as “*/MUC1”.

Consider “17 (VFETLEEITGYLYISAWPDSLPDLSV; immunogenic polypeptide) [compound 17]”, for which the “Testing” value with T-cells was “¶/HER2”.

As for “SPQLSTGVSFFFLSFHISNLQFNSSLEDPSTD-amide (SPQLSTGVSFFFLSFHISNLQFNSSLEDPSTD-NH2) [SEA1-amide, SEA1 amidated at the C-terminus]”, in the assay on SEA1-specific T-cells, the “SEA1-specific CD8+ T-cell response” value was “less affected by amidation” and the “sensitizing SEA1-specific CD4+ IFNγ-producing T-cells” value is on record as “far superior”.

As to “13 (TEILKGGVLIQRNPQLCYQDTILWKDIFH; immunogenic polypeptide) [compound 13]”, in the assay on T-cells, the “Testing” value is given as “¶/HER2”.

Regarding “14 (YQDTILWKDIFHKNNQLALTLIDTNRSRACHPC; immunogenic polypeptide) [compound 14]”, the “Testing” value in the assay with T-cells is listed as “¶/HER2”.

With “AHGVTSAPDTRPAPGSTAPPAHGV [VNTR, reference compound]”, the “immunogenicity (frequency of antigen-specific T-cells)” value with T-cells is given as “reproducibly less effective”.

Regarding “24 (IKRRQQKIRKYTMRRLLQETELVEPLTPS; immunogenic polypeptide) [compound 24]”, the “Testing” value with T-cells was “¶/HER2”.

Take “11 (LSFLQDIQEVQGYVLIAHNQVRQVPLQRL; immunogenic polypeptide) [compound 11]”: the “Testing” value in the assay on T-cells is on record as “¶/HER2”.

As to “18 (DLSVFQNLQVIRGRILHNGAYSLTLQGLG; immunogenic polypeptide) [compound 18]”, the “Testing” value in the assay with T-cells was “¶/HER2”.

As for “33 (SECRPRFRELVSEFSRMARDPQRFVVIQ; immunogenic polypeptide) [compound 33]”, the “Testing” value with T-cells is reported as “¶/HER2”.
